From publication PMC6979384, “Characterization of the plant homeodomain (PHD) reader family for their histone tail interactions” (Epigenetics & Chromatin, 2020)

Columns and labels:
Test in all cases: Histone peptide microarray
Type in all cases: binding, human
[1] = test system: PHF23; details: GST-tagged PHF23; sheet Array Heatmap; each array performed twice, total n = 4
Summary of the method: (§1)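 Steps: express and purify GST-tagged PHD reader; incubate 0.5 μM protein on a peptide microarray (293 histone peptides, single or combined PTMs) following an optimized protocol; average signal across 4 replicates.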

[2] = test system: SP140L; details: GST-tagged SP140L; sheet Array Heatmap; each array performed twice, total n = 4
Summary of the method: as §1

[3] = test system: KDM5B (1); details: GST-tagged KDM5B (1); sheet Array Heatmap; each array performed twice, total n = 4
Summary of the method: as §1

[4] = test system: PHRF1 (RP); details: GST-tagged PHRF1 (RP); sheet Array Heatmap; each array performed twice, total n = 4
Summary of the method: as §1

[5] = test system: KDM5A (1); details: GST-tagged KDM5A (1); sheet Array Heatmap; each array performed twice, total n = 4
Summary of the method: as §1

[6] = test system: CHD5 (PPCC); details: GST-tagged CHD5 (PPCC = Dual PHD + Dual Chromodomain); sheet Array Heatmap; each array performed twice, total n = 4
Summary of the method: as §1

[7] = test system: AIRE (PP); details: GST-tagged AIRE (PP); sheet Array Heatmap; each array performed twice, total n = 4
Summary of the method: as §1

[8] = test system: PHF21A; details: GST-tagged PHF21A; sheet Array Heatmap; each array performed twice, total n = 4
Summary of the method: as §1

[9] = test system: ING1; details: GST-tagged ING1; sheet Array Heatmap; each array performed twice, total n = 4
Summary of the method: as §1

[10] = test system: ING3; details: GST-tagged ING3; sheet Array Heatmap; each array performed twice, total n = 4
Summary of the method: as §1

[11] = test system: ING5; details: GST-tagged ING5; sheet Array Heatmap; each array performed twice, total n = 4
Summary of the method: as §1

[12] = test system: TAF3; details: GST-tagged TAF3; sheet Array Heatmap; each array performed twice, total n = 4
Summary of the method: as §1

[13] = test system: RAG2; details: GST-tagged RAG2; sheet Array Heatmap; each array performed twice, total n = 4
Summary of the method: as §1

[14] = test system: PHF13; details: GST-tagged PHF13; sheet Array Heatmap; each array performed twice, total n = 4
Summary of the method: as §1

[15] = test system: KDM7A; details: GST-tagged KDM7A; sheet Array Heatmap; each array performed twice, total n = 4
Summary of the method: as §1

[16] = test system: MORC3 (CW); details: GST-tagged MORC3 (CW = CW-type Zn-finger); sheet Array Heatmap; each array performed twice, total n = 4
Summary of the method: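 Readout is array binding signal, reported as the mean and standard deviation over four replicates. Each purified GST-fused PHD domain was incubated at 0.5 μM with a library of 293 modified histone peptides.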

[17] = test system: CHD4 (PPCC); details: GST-tagged CHD4 (PPCC = Dual PHD + Dual Chromodomain); sheet Array Heatmap; each array performed twice, total n = 4
Summary of the method: as §1

[18] = test system: TRIM66 (PB); details: GST-tagged TRIM66 (PB = PHD + Bromodomain); sheet Array Heatmap; each array performed twice, total n = 4
Summary of the method: as §1

[19] = test system: MLL5; details: GST-tagged MLL5; sheet Array Heatmap; each array performed twice, total n = 4
Summary of the method: as §1

[20] = test system: PHF2; details: GST-tagged PHF2; sheet Array Heatmap; each array performed twice, total n = 4
Summary of the method: as §1

[21] = test system: BPTF (PB); details: GST-tagged BPTF (PB = PHD + Bromodomain); sheet Array Heatmap; each array performed twice, total n = 4
Summary of the method: as §1

[22] = test system: BAZ2B; details: GST-tagged BAZ2B; sheet Array Heatmap; each array performed twice, total n = 4
Summary of the method: as §1

[23] = test system: ING2; details: GST-tagged ING2; sheet Array Heatmap; each array performed twice, total n = 4
Summary of the method: as §1

[24] = test system: KDM5A (3); details: GST-tagged KDM5A (3); sheet Array Heatmap; each array performed twice, total n = 4
Summary of the method: as §1

[25] = test system: PHF8; details: GST-tagged PHF8; sheet Array Heatmap; each array performed twice, total n = 4
Summary of the method: as §1

[26] = test system: DIDO1; details: GST-tagged DIDO1; sheet Array Heatmap; each array performed twice, total n = 4
Summary of the method: as §1

[27] = test system: KDM5B (3); details: GST-tagged KDM5B (3); sheet Array Heatmap; each array performed twice, total n = 4
Summary of the method: as §1

[28] = test system: ING4; details: GST-tagged ING4; sheet Array Heatmap; each array performed twice, total n = 4
Summary of the method: as §1

[29] = test system: KDM4C (TTP); details: GST-tagged KDM4C (TTP = Tandem Tudor domain + PHD); sheet Array Heatmap; each array performed twice, total n = 4
Summary of the method: as §1

[30] = test system: CHD5 (PCC); details: GST-tagged CHD5 (PCC = PHD + Dual Chromodomain); sheet Array Heatmap; each array performed twice, total n = 4
Summary of the method: as §1

[31] = test system: DPF2 (PPC2W2); details: GST-tagged DPF2 (PPC2W2 = Dual PHD + C2W2-type Zn-finger); sheet Array Heatmap; each array performed twice, total n = 4
Summary of the method: as §1

Substance	Array Heatmap signal (histone peptide microarray) [1]	Array Heatmap signal (histone peptide microarray) [2]	Array Heatmap signal (histone peptide microarray) [3]	Array Heatmap signal (histone peptide microarray) [4]	Array Heatmap signal (histone peptide microarray) [5]	Array Heatmap signal (histone peptide microarray) [6]	Array Heatmap signal (histone peptide microarray) [7]	Array Heatmap signal (histone peptide microarray) [8]	Array Heatmap signal (histone peptide microarray) [9]	Array Heatmap signal (histone peptide microarray) [10]	Array Heatmap signal (histone peptide microarray) [11]	Array Heatmap signal (histone peptide microarray) [12]	Array Heatmap signal (histone peptide microarray) [13]	Array Heatmap signal (histone peptide microarray) [14]	Array Heatmap signal (histone peptide microarray) [15]	Array Heatmap signal (histone peptide microarray) [16]	Array Heatmap signal (histone peptide microarray) [17]	Array Heatmap signal (histone peptide microarray) [18]	Array Heatmap signal (histone peptide microarray) [19]	Array Heatmap signal (histone peptide microarray) [20]	other results
H3R2me2a + K4me3 + K9ac + S10p + K14ac + K18ac: H3 1-20	0.5457	0.3224	0.6513	0.447	0.4602	0.548	0.4047	0.4526	0.5459	0.4975	0.3501	0.4085	0.3777	0.6389	0.3601	0.5411	0.6237	0.5406	0.625	0.7095	Array Heatmap signal (histone peptide microarray) [21]: 0.3887; Array Heatmap signal (histone peptide microarray) [22]: 0.4937; Array Heatmap signal (histone peptide microarray) [23]: 0.6564; Array Heatmap signal (histone peptide microarray) [24]: 0.601; Array Heatmap signal (histone peptide microarray) [25]: 0.4417; Array Heatmap signal (histone peptide microarray) [26]: 0.8949; Array Heatmap signal (histone peptide microarray) [27]: 0.4836; Array Heatmap signal (histone peptide microarray) [28]: 0.4604; Array Heatmap signal (histone peptide microarray) [29]: 0.4723; Array Heatmap signal (histone peptide microarray) [30]: 0.7925; Array Heatmap signal (histone peptide microarray) [31]: 0.6777
H3R2me2a + K4me3 + S10p: H3 1-20	0.5952	0.356	0.6814	0.4776	0.4568	0.5451	0.4162	0.4392	0.6296	0.4991	0.3497	0.3453	0.4658	0.6271	0.3687	0.6914	0.5987	0.5905	0.6475	0.8067	Array Heatmap signal (histone peptide microarray) [21]: 0.396; Array Heatmap signal (histone peptide microarray) [22]: 0.4437; Array Heatmap signal (histone peptide microarray) [23]: 0.6788; Array Heatmap signal (histone peptide microarray) [24]: 0.7062; Array Heatmap signal (histone peptide microarray) [25]: 0.5293; Array Heatmap signal (histone peptide microarray) [26]: 0.8994; Array Heatmap signal (histone peptide microarray) [27]: 0.5192; Array Heatmap signal (histone peptide microarray) [28]: 0.4698; Array Heatmap signal (histone peptide microarray) [29]: 0.4873; Array Heatmap signal (histone peptide microarray) [30]: 0.741; Array Heatmap signal (histone peptide microarray) [31]: 0.7179
H3R2me2a + K4me3: H3 1-20	0.6448	0.3488	0.7318	0.4573	0.4987	0.5913	0.4826	0.4989	0.5767	0.5638	0.4004	0.3674	0.449	0.6893	0.5712	0.8119	0.5963	0.6477	0.7481	0.6438	Array Heatmap signal (histone peptide microarray) [21]: 0.4143; Array Heatmap signal (histone peptide microarray) [22]: 0.4862; Array Heatmap signal (histone peptide microarray) [23]: 0.6869; Array Heatmap signal (histone peptide microarray) [24]: 0.8444; Array Heatmap signal (histone peptide microarray) [25]: 0.6195; Array Heatmap signal (histone peptide microarray) [26]: 0.8005; Array Heatmap signal (histone peptide microarray) [27]: 0.6231; Array Heatmap signal (histone peptide microarray) [28]: 0.4758; Array Heatmap signal (histone peptide microarray) [29]: 0.6181; Array Heatmap signal (histone peptide microarray) [30]: 0.8429; Array Heatmap signal (histone peptide microarray) [31]: 0.6763
H3R2me2a + T3p + K4me3 + K9ac + K14ac + K18ac: H3 1-20	0.5518	0.3444	0.6524	0.4697	0.4561	0.5374	0.414	0.4332	0.5919	0.4704	0.3446	0.2554	0.2569	0.5933	0.3252	0.4346	0.601	0.5775	0.5392	0.6236	Array Heatmap signal (histone peptide microarray) [21]: 0.3469; Array Heatmap signal (histone peptide microarray) [22]: 0.4718; Array Heatmap signal (histone peptide microarray) [23]: 0.6041; Array Heatmap signal (histone peptide microarray) [24]: 0.4737; Array Heatmap signal (histone peptide microarray) [25]: 0.377; Array Heatmap signal (histone peptide microarray) [26]: 0.7634; Array Heatmap signal (histone peptide microarray) [27]: 0.4463; Array Heatmap signal (histone peptide microarray) [28]: 0.4544; Array Heatmap signal (histone peptide microarray) [29]: 0.4624; Array Heatmap signal (histone peptide microarray) [30]: 0.7369; Array Heatmap signal (histone peptide microarray) [31]: 0.7018
